{
  "source": "paper PMC7669869",
  "about": "“AdipoR1/AdipoR2 dual agonist recovers nonalcoholic steatohepatitis and related fibrosis via endoplasmic reticulum-mitochondria axis” (Nature Communications, 2020)",
  "key": {"[1]": {"test_system": "gene expression in PA induced HepG2 cells", "test": "Quantitative RT-PCR in PA induced HepG2 cells", "type": "cell-based, human", "settings": "for IL-1a mRNA, relative expression, Supplementary Figure 11a / IL-6 mRNA, relative expression, Supplementary Figure 11a / IL-8 mRNA, relative expression, Supplementary Figure 11a / TNFa mRNA, relative expression, Supplementary Figure 11a: PA induced HepG2 cells, PA+JT003", "description": "Hepatoma carcinoma cell line HepG2 and human hepatic activated stellate cell line LX2 used in this study were purchased from Type Culture Collection of the Chinese Academy of Sciences (Shanghai, China). Cells were cultured in Dulbecco’s modified Eagle’s medium (DMEM) with 10% fetal bovine serum (FBS), supplemented with 1% penicillin–streptomycin (ThermoFisher Scientific, USA) at 37 °C in a humidified atmosphere of 5% CO2. In PA (Sigma, USA) induced lipid accumulation cell model, HepG2 cells were seeded into a 6-well plate at 5E5 cells per well. 0.25 mM PA and/or 200 μM candidate peptides were co-incubated with cells for 24 h. Then Oil Red O staining was performed to evaluate the accumulation of lipid droplets. BSA (Sigma, USA) was used in this experiment as the negative control. For LX2 cells, 2E5 cells were seeded, then the adherent cells were exposed to 200 μM candidate peptides for another 48 h. Next, the cell protein was obtained and western blotting was performed. Candidate peptides were diluted in DMEM in a stock concentration of 1 M.\nLiver total RNA was extracted by using Trizol reagent following the manufacture’s instruction (TransGen Biotech, China). The concentration of RNA was measured by Nanodrop 2000 (ThermoFisher Scientific, USA). cDNA was transcribed from 10ug total RNA with First Strand cDNA synthesis Super Mix (TransGen Biotech, China). The cDNA was diluted 1/50 and 1.0 uL were used as a template for qPCR. qPCR was performed with SYBR Green qPCR Super Mix (TransGen Biotech, China) in the Light Cycler 480 Real-Time PCR System (Roche, Swiss). Reference gene β-actin was used for data normalization. mRNA expression was analyzed with specific primers listed in Supplementary Table 2."}, "[2]": {"test_system": "AdipoR1 and AdipoR2 in HepG2 cells", "test": "RNA interference (AdipoR1/AdipoR2 siRNA) in PA induced HepG2: PPARα, PPARγ mRNA and protein", "type": "cell-based, human", "settings": "PA induced HepG2, 200 μM JT003; in words", "description": "AdipoR1 and AdipoR2 siRNA as well as mock siRNA were chemically synthesized (GenePharma, China) and transfected into 60–70% confluent HepG2 and LX2 cells using Lipofectamine 3000 (ThermoFisher Scientific, USA). Dilution of siRNA and Lipofectamine 3000 reagents as well as the transfection of cells were performed following the manufacturer’s protocol. For HepG2 cell model, 5E5 cells were plated in 6-well plates and transfected with 5 μL of 20 μM stock siRNA. At 48 h following transfection, the cells were processed for 0.25 mM PA and/or 200 μM JT003 treated for another 24 h. BSA was used as the negative control. […]\nLiver total RNA was extracted by using Trizol reagent following the manufacture’s instruction (TransGen Biotech, China). The concentration of RNA was measured by Nanodrop 2000 (ThermoFisher Scientific, USA). cDNA was transcribed from 10ug total RNA with First Strand cDNA synthesis Super Mix (TransGen Biotech, China). […] Reference gene β-actin was used for data normalization. mRNA expression was analyzed with specific primers listed in Supplementary Table 2.\nTotal protein was isolated from cells or liver samples using RIPA lysis buffer (50.0 mM Tris-HCl (pH = 8.0), 150.0 mM NaCl, 0.02% NaN3, 0.1% SDS, 1% NP-40, 0.5% deoxysodium cholate, 1 mM EDTA, […]). The protein concentration was quantified with BCA kit (Pierce, ThermoFisher Scientific, USA). […]"}, "AdipoR1": {"molecular_target": "T1, AdipoR1 (Homo sapiens, UniProt Q96A54)", "T1 construct": "His; host or cells: HEK293", "T1 sequence (Q96A54 1-375)": "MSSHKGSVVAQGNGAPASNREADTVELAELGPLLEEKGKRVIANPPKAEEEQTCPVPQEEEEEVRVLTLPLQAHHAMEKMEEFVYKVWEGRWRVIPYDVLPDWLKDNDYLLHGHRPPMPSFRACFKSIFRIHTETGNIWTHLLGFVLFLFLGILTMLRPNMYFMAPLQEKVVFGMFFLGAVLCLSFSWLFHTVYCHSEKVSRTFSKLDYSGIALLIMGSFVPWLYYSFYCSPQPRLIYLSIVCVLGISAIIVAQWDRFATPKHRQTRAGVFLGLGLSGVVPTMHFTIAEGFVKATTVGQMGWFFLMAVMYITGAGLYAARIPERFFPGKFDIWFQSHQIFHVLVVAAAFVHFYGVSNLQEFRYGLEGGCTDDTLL", "test": "HTRF binding, AdipoR1 overexpression HEK293 cells", "settings": "in words", "description": "The expression plasmid of AdipoR1 and AdipoR2 were synthesized and codon optimized by Genescript (Nanjing, China) for their expression in HEK293 cell line. The concentration of FITC-JT003 was 0, 0.1, 0.25, 0.5, 1, 2.5 or 5 μM respectively. Unlabeled peptide JT003 was used as the control to measure the non-specific signal. 10E4 AdipoR1 and AdipoR2 overexpression cells, anti-His-Tb (ThermoFisher Scientific, USA) and JT003-FITC were added into a 384-well plate, with a total volume of 25μl. The mixtures were incubated at room temperature for 30 min in the dark. Fluorescent values at 520 nm and 620 nm were measured for Kd calculation."}},
  "note": "Non-standard residues stand in square brackets, D forms with d. Residues, ends and D or L forms follow the SMILES beside them. Nva = CCC[C@H](N)C(=O)O",
  "data": [
    {"compound": "CCC[C@H](NC(=O)[C@@H]1CCCN1)C(=O)N[C@@H](CC(C)C)C(=O)N[C@@H](Cc1ccc(O)cc1)C(=O)N[C@@H](Cc1ccc(O)cc1)C(=O)N[C@@H](Cc1ccccc1)C(=O)N[C@@H](C)C(N)=O", "note": "[JT003] (H-P[Nva]LYYFA-NH2)", "values": [
      {"measurement": "lipogenesis (FAS, SREBP-1C, SREBP-2 and ACC1) and fatty acid β-oxidation (ACOX, LCAD and PDK4) genes", "setting": "[1]; HepG2, 0.25 mM PA + 200 μM JT003, in words", "result": "meliorated notably"},
      {"measurement": "inflammatory factors and ER-mitochondrial axis dysfunction (mRNA)", "setting": "[1]; PA induced HepG2, 200 μM JT003, in words", "result": "meliorated notably"},
      {"measurement": "IL-1a mRNA, relative expression, Supplementary Figure 11a", "setting": "[1]; replicate 1", "result": 1.056},
      {"measurement": "IL-6 mRNA, relative expression, Supplementary Figure 11a", "setting": "[1]; replicate 1", "result": 0.3197},
      {"measurement": "IL-8 mRNA, relative expression, Supplementary Figure 11a", "setting": "[1]; replicate 1", "result": 0.8479},
      {"measurement": "TNFa mRNA, relative expression, Supplementary Figure 11a", "setting": "[1]; replicate 1", "result": 0.6008},
      {"measurement": "IL-1a mRNA, relative expression, Supplementary Figure 11a", "setting": "[1]; replicate 2", "result": 0.8256},
      {"measurement": "IL-6 mRNA, relative expression, Supplementary Figure 11a", "setting": "[1]; replicate 2", "result": 0.3197},
      {"measurement": "IL-8 mRNA, relative expression, Supplementary Figure 11a", "setting": "[1]; replicate 2", "result": 0.8134},
      {"measurement": "TNFa mRNA, relative expression, Supplementary Figure 11a", "setting": "[1]; replicate 2", "result": 0.8039},
      {"measurement": "IL-1a mRNA, relative expression, Supplementary Figure 11a", "setting": "[1]; replicate 3", "result": 0.9853},
      {"measurement": "IL-6 mRNA, relative expression, Supplementary Figure 11a", "setting": "[1]; replicate 3", "result": 0.4368},
      {"measurement": "IL-8 mRNA, relative expression, Supplementary Figure 11a", "setting": "[1]; replicate 3", "result": 0.8277},
      {"measurement": "TNFa mRNA, relative expression, Supplementary Figure 11a", "setting": "[1]; replicate 3", "result": 0.7928},
      {"measurement": "IL-1a mRNA, relative expression, Supplementary Figure 11a", "setting": "[1]; replicate 4", "result": 0.9145},
      {"measurement": "IL-6 mRNA, relative expression, Supplementary Figure 11a", "setting": "[1]; replicate 4", "result": 0.3522},
      {"measurement": "IL-8 mRNA, relative expression, Supplementary Figure 11a", "setting": "[1]; replicate 4", "result": 0.8368},
      {"measurement": "TNFa mRNA, relative expression, Supplementary Figure 11a", "setting": "[1]; replicate 4", "result": 0.7583},
      {"measurement": "effect of AdipoR1 and/or AdipoR2 siRNA on JT003 mediated PPARα and PPARγ expression", "setting": "[2]", "result": "blocked the JT003 effects on mediating PPARα and PPARγ expression"},
      {"measurement": "Kd value for AdipoR1 compared to JT006 and ADP355", "setting": "AdipoR1", "result": "significantly lower Kd value"}
    ]}
  ]
}
